Drawing on paper PMC2764847, “Dual Localized AtHscB Involved in Iron Sulfur Protein Biogenesis in Arabidopsis” (PLoS ONE, 2009), this text covers Km for one compound.

The target in the assay is T1, AtHscA1 (Arabidopsis thaliana, UniProt Q8GUM2).
T1 construct: gene HSP70-9
T1 sequence (Q8GUM2 47-682): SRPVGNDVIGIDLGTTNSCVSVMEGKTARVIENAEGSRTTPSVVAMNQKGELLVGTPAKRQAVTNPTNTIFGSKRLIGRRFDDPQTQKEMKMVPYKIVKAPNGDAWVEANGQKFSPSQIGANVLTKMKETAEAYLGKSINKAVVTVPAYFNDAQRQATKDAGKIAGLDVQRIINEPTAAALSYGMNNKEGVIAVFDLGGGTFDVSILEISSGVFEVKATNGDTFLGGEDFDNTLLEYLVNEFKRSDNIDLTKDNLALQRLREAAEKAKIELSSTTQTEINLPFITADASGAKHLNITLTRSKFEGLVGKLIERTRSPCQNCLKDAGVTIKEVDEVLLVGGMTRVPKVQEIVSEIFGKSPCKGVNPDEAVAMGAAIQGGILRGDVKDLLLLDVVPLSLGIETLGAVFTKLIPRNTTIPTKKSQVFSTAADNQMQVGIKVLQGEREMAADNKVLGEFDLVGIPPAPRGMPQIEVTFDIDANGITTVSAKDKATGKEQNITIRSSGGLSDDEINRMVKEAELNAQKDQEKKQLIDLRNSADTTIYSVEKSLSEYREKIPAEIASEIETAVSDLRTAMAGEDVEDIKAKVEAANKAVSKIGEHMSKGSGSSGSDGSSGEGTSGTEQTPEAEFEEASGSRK
Briefly: ATPase assay, [gamma-32P]ATP hydrolysis, TLC and phosphorimager. The format is biochemical. The note with it: 50 mM Tris-HCl pH 7.4, 50 mM NaCl, 10 mM KCl, 0.1 mM EDTA, 1.5 mM DTT; 2 µM protein; no co-chaperone; labelled compound.

As a reminder, the Km is the substrate concentration at which the rate is half of its maximum. Turning to `Nc1ncnc2c1ncn2[C@@H]1O[C@H](COP(=O)(O)OP(=O)(O)OP(=O)(O)O)[C@@H](O)[C@H]1O` [ATP], the Km stood at 49.5 µM.
